In article PMC12136037, “Type II kinase inhibitors that target Parkinson’s disease–associated LRRK2” (Science Advances, 2025):

Experiments:
Assay in all cases: DSF 100 kinase selectivity screen;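 also: compound tested at 20 µM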
Format in all cases: binding
[1] = target: T1, ~100 representative kinases (Homo sapiens, UniProt O15164); settings: Protein TIF1; DSF; average of three replicates
T1 construct: Recombinant protein kinase domains with a concentration of 2 μM
T1 sequence (O15164 1-1050): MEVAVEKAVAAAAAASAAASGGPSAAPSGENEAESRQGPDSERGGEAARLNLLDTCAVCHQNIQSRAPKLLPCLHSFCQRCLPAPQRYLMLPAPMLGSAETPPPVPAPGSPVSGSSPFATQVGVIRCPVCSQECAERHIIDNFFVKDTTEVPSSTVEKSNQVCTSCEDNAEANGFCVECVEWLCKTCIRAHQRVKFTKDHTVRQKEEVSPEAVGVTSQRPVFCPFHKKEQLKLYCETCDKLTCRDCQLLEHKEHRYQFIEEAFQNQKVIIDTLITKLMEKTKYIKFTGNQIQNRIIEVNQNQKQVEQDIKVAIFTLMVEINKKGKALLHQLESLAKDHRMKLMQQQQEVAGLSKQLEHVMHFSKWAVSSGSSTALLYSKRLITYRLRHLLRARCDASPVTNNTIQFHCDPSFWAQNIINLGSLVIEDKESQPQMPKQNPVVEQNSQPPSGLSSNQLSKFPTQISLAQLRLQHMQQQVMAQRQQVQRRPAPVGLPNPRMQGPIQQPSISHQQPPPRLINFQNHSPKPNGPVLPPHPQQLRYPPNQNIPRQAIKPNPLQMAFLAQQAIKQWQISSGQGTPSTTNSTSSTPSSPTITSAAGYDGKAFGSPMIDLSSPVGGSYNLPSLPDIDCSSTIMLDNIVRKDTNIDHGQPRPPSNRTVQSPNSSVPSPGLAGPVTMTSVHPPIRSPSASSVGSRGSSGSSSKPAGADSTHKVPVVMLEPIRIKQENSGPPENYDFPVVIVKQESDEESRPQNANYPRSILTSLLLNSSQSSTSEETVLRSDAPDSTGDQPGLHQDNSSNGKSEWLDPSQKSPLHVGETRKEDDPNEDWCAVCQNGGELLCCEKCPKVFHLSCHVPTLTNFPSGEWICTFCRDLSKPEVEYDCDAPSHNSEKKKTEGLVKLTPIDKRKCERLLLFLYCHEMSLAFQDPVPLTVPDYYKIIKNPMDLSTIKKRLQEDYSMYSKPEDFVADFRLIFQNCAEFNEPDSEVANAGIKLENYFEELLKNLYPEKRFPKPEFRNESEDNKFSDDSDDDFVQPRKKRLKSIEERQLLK
In short: (§1)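 Each kinase domain, at 2 μM, is mixed with 20 μM test compound and SYPRO Orange in Hepes (20 mM, pH 7.5) with 500 mM NaCl. Temperature is then raised at 3°C/min and fluorescence-monitored unfolding yields the melting temperature change, ΔTm in degrees Celsius.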

[2] = target: T2, ~100 representative kinases (Homo sapiens, UniProt O75385); settings: Protein ULK1; DSF; average of three replicates
T2 construct: Recombinant protein kinase domains with a concentration of 2 μM
T2 sequence (O75385 1-1050): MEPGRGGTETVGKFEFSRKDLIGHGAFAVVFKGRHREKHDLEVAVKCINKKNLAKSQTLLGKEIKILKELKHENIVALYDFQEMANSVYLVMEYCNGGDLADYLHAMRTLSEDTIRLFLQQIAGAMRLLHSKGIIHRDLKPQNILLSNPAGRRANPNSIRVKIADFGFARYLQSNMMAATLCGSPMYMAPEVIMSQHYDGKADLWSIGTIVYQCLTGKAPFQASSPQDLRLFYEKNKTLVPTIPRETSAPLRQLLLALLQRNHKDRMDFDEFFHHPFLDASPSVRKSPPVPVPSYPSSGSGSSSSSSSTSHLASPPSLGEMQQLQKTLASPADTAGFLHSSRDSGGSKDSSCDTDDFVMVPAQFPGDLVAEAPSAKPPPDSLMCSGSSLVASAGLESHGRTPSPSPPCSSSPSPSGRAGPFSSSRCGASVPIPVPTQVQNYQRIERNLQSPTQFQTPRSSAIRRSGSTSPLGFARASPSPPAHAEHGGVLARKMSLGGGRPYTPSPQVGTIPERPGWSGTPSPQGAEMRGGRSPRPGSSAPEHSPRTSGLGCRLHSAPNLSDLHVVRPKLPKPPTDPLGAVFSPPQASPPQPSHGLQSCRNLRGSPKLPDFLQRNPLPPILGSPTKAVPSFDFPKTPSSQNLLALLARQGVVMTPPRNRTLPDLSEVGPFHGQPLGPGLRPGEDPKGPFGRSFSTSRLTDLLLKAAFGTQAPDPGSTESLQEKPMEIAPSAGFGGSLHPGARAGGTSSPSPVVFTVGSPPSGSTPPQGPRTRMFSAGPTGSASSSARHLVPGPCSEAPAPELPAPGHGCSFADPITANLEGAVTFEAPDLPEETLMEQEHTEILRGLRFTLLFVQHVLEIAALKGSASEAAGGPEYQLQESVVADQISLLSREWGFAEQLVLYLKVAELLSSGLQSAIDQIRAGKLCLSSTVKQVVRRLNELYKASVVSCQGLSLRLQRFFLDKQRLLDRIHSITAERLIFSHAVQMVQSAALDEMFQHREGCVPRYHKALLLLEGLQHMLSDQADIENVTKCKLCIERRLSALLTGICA
In short: as §1

[3] = target: T3, ~100 representative kinases (Homo sapiens, UniProt P22607); settings: protein FGFR3; average of three replicates
T3 construct: Recombinant protein kinase domains with a concentration of 2 μM
T3 sequence (P22607 23-806): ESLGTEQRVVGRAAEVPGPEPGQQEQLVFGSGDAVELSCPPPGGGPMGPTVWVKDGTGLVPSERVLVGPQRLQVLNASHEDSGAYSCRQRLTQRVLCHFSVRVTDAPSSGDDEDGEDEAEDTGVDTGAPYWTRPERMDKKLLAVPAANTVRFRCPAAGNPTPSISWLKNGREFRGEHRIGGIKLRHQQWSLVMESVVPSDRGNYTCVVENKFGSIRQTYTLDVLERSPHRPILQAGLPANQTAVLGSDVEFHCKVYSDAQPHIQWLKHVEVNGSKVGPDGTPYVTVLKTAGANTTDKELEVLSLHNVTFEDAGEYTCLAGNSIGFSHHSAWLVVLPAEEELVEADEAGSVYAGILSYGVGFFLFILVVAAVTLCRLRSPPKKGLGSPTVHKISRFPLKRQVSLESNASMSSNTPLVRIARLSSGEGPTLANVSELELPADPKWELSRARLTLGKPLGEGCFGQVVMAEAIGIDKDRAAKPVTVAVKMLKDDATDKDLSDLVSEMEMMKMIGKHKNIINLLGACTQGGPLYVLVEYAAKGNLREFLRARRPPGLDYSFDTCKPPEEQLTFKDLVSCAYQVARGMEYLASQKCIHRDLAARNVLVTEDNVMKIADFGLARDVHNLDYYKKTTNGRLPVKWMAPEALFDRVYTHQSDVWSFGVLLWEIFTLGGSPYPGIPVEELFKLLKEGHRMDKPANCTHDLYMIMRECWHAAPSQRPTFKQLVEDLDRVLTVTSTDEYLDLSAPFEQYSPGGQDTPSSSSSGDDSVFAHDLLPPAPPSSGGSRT
In short: as §1

[4] = target: T4, ~100 representative kinases (Homo sapiens, UniProt Q16654); settings: protein PDK4; average of three replicates
T4 construct: Recombinant protein kinase domains with a concentration of 2 μM
T4 sequence (Q16654 whole entry, the tested form may be a part): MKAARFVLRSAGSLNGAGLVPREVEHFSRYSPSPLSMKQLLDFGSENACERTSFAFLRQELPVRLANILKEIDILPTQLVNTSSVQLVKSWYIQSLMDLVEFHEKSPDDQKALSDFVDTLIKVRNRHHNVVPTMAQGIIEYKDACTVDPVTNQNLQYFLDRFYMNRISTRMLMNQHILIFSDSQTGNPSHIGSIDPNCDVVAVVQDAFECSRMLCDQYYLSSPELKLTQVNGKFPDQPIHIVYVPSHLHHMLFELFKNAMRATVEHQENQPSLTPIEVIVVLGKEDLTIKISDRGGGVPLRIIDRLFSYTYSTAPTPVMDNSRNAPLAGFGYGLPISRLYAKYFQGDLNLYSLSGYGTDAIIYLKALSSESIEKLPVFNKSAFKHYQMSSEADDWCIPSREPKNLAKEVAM
In short: as §1

[5] = target: T5, ~100 representative kinases (Homo sapiens, UniProt P78368); settings: Protein CSNK1G2; average of three replicates
T5 construct: Recombinant protein kinase domains with a concentration of 2 μM
T5 sequence (P78368 whole entry, the tested form may be a part): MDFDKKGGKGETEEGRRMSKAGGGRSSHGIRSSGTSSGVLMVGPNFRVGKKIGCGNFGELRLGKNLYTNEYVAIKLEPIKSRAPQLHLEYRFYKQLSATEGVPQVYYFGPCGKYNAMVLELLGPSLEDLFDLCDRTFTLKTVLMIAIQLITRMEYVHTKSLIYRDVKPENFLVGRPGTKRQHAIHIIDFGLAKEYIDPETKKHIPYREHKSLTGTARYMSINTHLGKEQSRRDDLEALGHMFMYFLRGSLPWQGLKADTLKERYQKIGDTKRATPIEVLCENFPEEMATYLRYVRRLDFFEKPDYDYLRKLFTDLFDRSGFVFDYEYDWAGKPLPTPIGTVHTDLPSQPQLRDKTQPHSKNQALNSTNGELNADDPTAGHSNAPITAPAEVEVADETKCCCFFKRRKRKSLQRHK
In short: as §1

## Cc1ccc(C(=O)Nc2ccc(CN3CCN(C)CC3)c(C(F)(F)F)c2)cc1C#Cc1c[nH]c2ncnc(N3CCOCC3)c12 [Compound 1]
[1]
  dTm: 0.45 K
[2]
  dTm: 6.89 K
[3]
  dTm: 4.20 K
[4]
  dTm: -0.54 K

## O=C(Nc1ccc(F)cc1)C1(C(=O)Nc2cccc(-c3c[nH]c4ncnc(N5CCOCC5)c34)c2)CC1 [Compound 2]
[5]
  dTm: 0.45 K

## O=C(Nc1cccc(-c2c[nH]c3ncnc(N4CCOCC4)c23)c1)c1cccn(-c2ccc(F)cc2)c1=O [Compound 4]
[5]
  dTm: 0.40 K

## Cc1cc(NC(=O)C2(C(=O)Nc3ccc(F)cc3)CC2)cc(-c2c[nH]c3ncnc(N4CCOCC4)c23)c1 [Compound 6]
[1]
  dTm: 2.83 K
[2]
  dTm: 5.26 K
[3]
  dTm: 1.74 K

## O=C(Nc1cccc(-c2c[nH]c3ncnc(N4CCOCC4)c23)c1)C1(C(=O)Nc2cccc3c2CCC3)CC1 [Compound 11]
[1]
  dTm: 3.41 K
[2]
  dTm: 6.92 K
[3]
  dTm: 2.85 K

## O=C(Nc1ccccc1)C1(C(=O)Nc2cccc(-c3c[nH]c4ncnc(N5CCOCC5)c34)c2)CC1 [Compound 12]
[5]
  dTm: 0.39 K

## O=C(Nc1ccc(Cl)cc1)C1(C(=O)Nc2cccc(-c3c[nH]c4ncnc(N5CCOCC5)c34)c2)CC1 [Compound 13]
[5]
  dTm: 0.51 K

## Cc1ccc(NC(=O)C2(C(=O)Nc3cccc(-c4c[nH]c5ncnc(N6CCOCC6)c45)c3)CC2)cc1 [Compound 14]
[5]
  dTm: 0.81 K

## CCc1ccc(NC(=O)C2(C(=O)Nc3cccc(-c4c[nH]c5ncnc(N6CCOCC6)c45)c3)CC2)cc1 [Compound 15]
[5]
  dTm: 0.60 K

## COc1ccc(NC(=O)C2(C(=O)Nc3cccc(-c4c[nH]c5ncnc(N6CCOCC6)c45)c3)CC2)cc1 [Compound 16]
[5]
  dTm: 0.71 K

## O=C(Nc1cccc(-c2c[nH]c3ncnc(N4CCOCC4)c23)c1)C1(C(=O)Nc2ccc(F)c(F)c2)CC1 [Compound 17]
[5]
  dTm: 0.36 K

## O=C(Nc1cccc(-c2c[nH]c3ncnc(N4CCOCC4)c23)c1)C1(C(=O)Nc2ccc(F)c(Cl)c2)CC1 [Compound 18]
[5]
  dTm: 0.27 K

## O=C(Nc1cccc(-c2c[nH]c3ncnc(N4CCOCC4)c23)c1)C1(C(=O)Nc2ccc(F)c(Br)c2)CC1 [Compound 19]
[1]
  dTm: 3.26 K
[2]
  dTm: 12.52 K
[3]
  dTm: 4.74 K

## Cc1cc(NC(=O)C2(C(=O)Nc3cccc(-c4c[nH]c5ncnc(N6CCOCC6)c45)c3)CC2)ccc1F [Compound 20]
[5]
  dTm: 0.39 K

## COc1cc(NC(=O)C2(C(=O)Nc3cccc(-c4c[nH]c5ncnc(N6CCOCC6)c45)c3)CC2)ccc1F [Compound 21]
[5]
  dTm: 0.57 K

## CC(C)(C)c1cccc(NC(=O)C2(C(=O)Nc3cccc(-c4c[nH]c5ncnc(N6CCOCC6)c45)c3)CC2)c1 [Compound 22]
[1]
  dTm: 5.42 K
[2]
  dTm: 9.16 K
[3]
  dTm: 4.54 K

## O=C(Nc1cccc(-c2c[nH]c3ncnc(N4CCOCC4)c23)c1)C1(C(=O)Nc2ccc(F)cc2F)CC1 [Compound 23]
[5]
  dTm: 0.54 K

## Cc1cc(F)ccc1NC(=O)C1(C(=O)Nc2cccc(-c3c[nH]c4ncnc(N5CCOCC5)c34)c2)CC1 [Compound 24]
[5]
  dTm: 0.62 K

## O=C(Nc1cccc(-c2c[nH]c3ncnc(N4CCOCC4)c23)c1)C1(C(=O)Nc2cc(Br)c(F)cc2F)CC1 [Compound 25]
[1]
  dTm: 3.01 K
[2]
  dTm: 7.16 K
[3]
  dTm: 2.90 K

## O=C(Nc1cccc(-c2c[nH]c3ncnc(N4CCOCC4)c23)c1)C1(C(=O)Nc2ccc(F)c(Br)c2F)CC1 [Compound 26]
[1]
  dTm: 2.87 K
[2]
  dTm: 8.48 K
[3]
  dTm: 3.36 K

## O=C(Nc1cc(F)cc(Br)c1)C1(C(=O)Nc2cccc(-c3c[nH]c4ncnc(N5CCOCC5)c34)c2)CC1 [Compound 27]
[1]
  dTm: 4.20 K
[2]
  dTm: 6.71 K
[3]
  dTm: 2.07 K

## CC(C)(C)c1cc(NC(=O)Nc2cccc(-c3c[nH]c4ncnc(N5CCOCC5)c34)c2)n(-c2ccc3ncccc3c2)n1 [Compound 28]
[5]
  dTm: 0.05 K

## Cc1ccc(-n2nc(C(C)(C)C)cc2NC(=O)Nc2cccc(-c3c[nH]c4ncnc(N5CCOCC5)c34)c2)cc1 [Compound 29]
[1]
  dTm: 0.97 K
[2]
  dTm: 10.70 K

## Cc1ccc(-n2nc(C(C)(C)C)cc2NC(=O)Nc2cccc(-c3c[nH]c4nc(Cl)nc(N5CCOCC5)c34)c2)cc1 [Compound 30]
[1]
  dTm: 1.73 K
[2]
  dTm: 2.91 K

## CC(=O)N1CCN(c2nc(Cl)nc3[nH]cc(-c4cccc(NC(=O)Nc5cc(C(C)(C)C)nn5-c5ccc(C)cc5)c4)c23)CC1 [Compound 31]
[1]
  dTm: 0.90 K
[2]
  dTm: 2.80 K

## CCSc1nc(NC)c2c(-c3cccc(NC(=O)Nc4cc(C(C)(C)C)nn4-c4ccc(C)cc4)c3)c[nH]c2n1 [Compound 32]
[1]
  dTm: 0.82 K
[2]
  dTm: 0.62 K

## COc1cc(C(=O)N2CCOCC2)c(F)cc1Nc1nc(N(C)C)c2c(Cl)c[nH]c2n1 [Compound 36]
[1]
  dTm: -2.24 K
[2]
  dTm: -0.79 K

## COc1cc(S(C)(=O)=O)ccc1Nc1nc(N(C)C)c2c(Cl)c[nH]c2n1 [Compound 37]
[1]
  dTm: -0.80 K
[2]
  dTm: -0.88 K

## COc1cc2c(Oc3ccc(NC(=O)C4(C(=O)Nc5ccc(F)cc5)CC4)cc3F)ccnc2cc1OCCCN1CCOCC1 [Foretinib, reference compound]
[5]
  dTm: 0.37 K

## CCNc1nc(Nc2cc(F)c(C(=O)N3CCOCC3)cc2OC)ncc1C(F)(F)F [GNE-7915]
[1]
  dTm: -0.22 K
[2]
  dTm: 1.06 K
[3]
  dTm: 1.40 K
[4]
  dTm: -0.0168 K

## Cc1ccc(C(=O)Nc2ccc(CN3CCN(C)CC3)c(C(F)(F)F)c2)cc1C#Cc1cnc2[nH]ncc2c1 [GZD-824, reference compound]
[1]
  dTm: 0.34 K
[2]
  dTm: 6.60 K
[3]
  dTm: 14.11 K
[4]
  dTm: -0.28 K

## Cc1ccc(C(=O)Nc2ccc(CN3CCN(C)CC3)c(C(F)(F)F)c2)cc1C#Cc1cnc2cccnn12 [Ponatinib, reference compound]
[1]
  dTm: 0.0214 K
[3]
  dTm: 14.03 K
[4]
  dTm: -0.09 K

## CNC(=O)c1cc(Oc2ccc(NC(=O)Nc3cc(C(C)(C)C)nn3-c3ccc4ncccc4c3)c(F)c2)ccn1 [Rebastinib, reference compound]
[1]
  dTm: 0.87 K
[2]
  dTm: 5.73 K

## CN[C@@H]1C[C@H]2O[C@@](C)([C@@H]1OC)n1c3ccccc3c3c4c(c5c6ccccc6n2c5c31)C(=O)NC4 [Staurosporine]
[2]
  dTm: 14.02 K
